Several values for one entry are separate records, joined by “and”; a condition that tells them apart may be missing. Equal entries are not always repeated. Inconclusive results and toxic doses are left out.
Test system: P388 leukemia ip, CD2F1 mice, survival T/C
Assay: NCI In Vivo Anticancer Drug Screen. Data for tumor model P388 Leukemia (intraperitoneal) in CD2F1 (CDF1) mice
Settings: endpoint: median survival time, higher = longer survival
How it was run: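 Mice carrying the transplanted tumor received test compound or vehicle. Survival was recorded in each group, and the value is the treated-group measurement divided by that of the vehicle-treated control group.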

[1] = dose: 100.0 mg/kg/injection, schedule: Q04DX003 (ip), vehicle: saline with Tween-80
[2] = dose: 200.0 mg/kg/injection, schedule: Q04DX003 (ip), vehicle: saline with Tween-80
[3] = dose: 400.0 mg/kg/injection, schedule: Q04DX003 (ip), vehicle: saline with Tween-80
[4] = dose: 6.25 mg/kg/injection, schedule: Q01DX009 (ip), vehicle: saline with Tween-80
[5] = dose: 12.5 mg/kg/injection, schedule: Q01DX009 (ip), vehicle: saline with Tween-80
[6] = dose: 25.0 mg/kg/injection, schedule: Q01DX009 (ip), vehicle: saline with Tween-80
[7] = dose: 50.0 mg/kg/injection, schedule: Q01DX009 (ip), vehicle: saline with Tween-80
[8] = dose: 100.0 mg/kg/injection, schedule: Q01DX009 (ip), vehicle: saline with Tween-80
[9] = dose: 12.5 mg/kg/injection, schedule: Q01DX009 (ip), vehicle: saline
[10] = dose: 25.0 mg/kg/injection, schedule: Q01DX009 (ip), vehicle: saline
[11] = dose: 50.0 mg/kg/injection, schedule: Q01DX001 (ip), vehicle: saline with Tween-80
[12] = dose: 100.0 mg/kg/injection, schedule: Q01DX001 (ip), vehicle: saline with Tween-80
[13] = dose: 6.25 mg/kg/injection, schedule: Q01DX009 (ip), vehicle: Klucel (hydroxypropylcellulose) (HPC)
[14] = dose: 12.5 mg/kg/injection, schedule: Q01DX009 (ip), vehicle: Klucel (hydroxypropylcellulose) (HPC)
[15] = dose: 25.0 mg/kg/injection, schedule: Q01DX009 (ip), vehicle: Klucel (hydroxypropylcellulose) (HPC)
[16] = dose: 60.0 mg/kg/injection, schedule: Q01DX005 (ip), vehicle: saline with Tween-80
[17] = dose: 120.0 mg/kg/injection, schedule: Q01DX005 (ip), vehicle: saline with Tween-80
[18] = dose: 50.0 mg/kg/injection, schedule: Q01DX009 (ip), vehicle: Klucel (hydroxypropylcellulose) (HPC)
[19] = dose: 200.0 mg/kg/injection, schedule: Q01DX009 (ip), vehicle: saline with Tween-80
[20] = dose: 200.0 mg/kg/injection, schedule: Q01DX009 (ip), vehicle: Klucel (hydroxypropylcellulose) (HPC)
[21] = dose: 50.0 mg/kg/injection, schedule: Q01DX005 (ip), vehicle: saline with Tween-80
[22] = dose: 100.0 mg/kg/injection, schedule: Q01DX005 (ip), vehicle: saline with Tween-80

Structure (SMILES): OC1(C2(O)CCCC2)CCCC1
- T/C [1]: 100 % of control
- T/C [2]: 104 % of control
- T/C [3]: 95 % of control

Structure (SMILES): OCC1OC(n2ncc3ccccc32)C(O)C1O (centres undefined)
- T/C [4]: 97 % of control
- T/C [5]: 92 % of control
- T/C [6]: 106 % of control
- T/C (dose: 32.0 mg/kg/injection, schedule: Q01DX002 (ip), vehicle: saline with Tween-80): 114 % of control and 90 % of control
- T/C [7]: 106 % of control
- T/C (dose: 64.0 mg/kg/injection, schedule: Q01DX002 (ip), vehicle: saline with Tween-80): 106 % of control
- T/C [8]: 100 % of control
- T/C (dose: 128.0 mg/kg/injection, schedule: Q01DX002 (ip), vehicle: saline with Tween-80): 112 % of control and 116 % of control

Structure (SMILES): CN(C)CCC(=O)c1cccc([N+](=O)[O-])c1
- T/C [9]: 104 % of control
- T/C [10]: 101 % of control
- T/C (dose: 50.0 mg/kg/injection, schedule: Q01DX009 (ip), vehicle: saline): 104 % of control and 109 % of control
- T/C (dose: 100.0 mg/kg/injection, schedule: Q01DX009 (ip), vehicle: saline): 98 % of control

Structure (SMILES): CCN(CC)CCCNc1cc(C)c2cc(OC)ccc2n1
- T/C (dose: 25.0 mg/kg/injection, schedule: Q01DX001 (ip), vehicle: saline with Tween-80): 99 % of control
- T/C [11]: 97 % of control
- T/C [12]: 90 % of control

Structure (SMILES): C=C1Sc2ccccc2N1C
- T/C [13]: 111 % of control
- T/C [14]: 107 % of control and 114 % of control
- T/C [15]: 123 % of control

Structure (SMILES): COc1ccc(OC)c(NCCCN2C(=O)c3ccccc3C2=O)c1
- T/C [16]: 90 % of control
- T/C [17]: 86 % of control

Structure (SMILES): CCN1CCc2cccc3c2C1c1ccccc1CC3 (centres undefined)
- T/C [11]: 100 % of control
- T/C [12]: 101 % of control

Structure (SMILES): COc1ccc2c(c1)CCC1(C)CC(=O)C(Br)=C21 (centres undefined)
- T/C [13]: 109 % of control and 112 % of control and 114 % of control
- T/C [14]: 100 % of control and 107 % of control and 114 % of control
- T/C [15]: 102 % of control and 107 % of control
- T/C [18]: 106 % of control

Structure (SMILES): O=C1C(C(=Nc2ccc3ccccc3c2)c2ccccc2)=C(O)c2ccccc21
- T/C (dose: 25.0 mg/kg/injection, schedule: Q04DX002 (ip), vehicle: saline with Tween-80): 100 % of control
- T/C (dose: 50.0 mg/kg/injection, schedule: Q04DX002 (ip), vehicle: saline with Tween-80): 102 % of control
- T/C (dose: 100.0 mg/kg/injection, schedule: Q04DX002 (ip), vehicle: saline with Tween-80): 89 % of control

Structure (SMILES): Nc1ccnc(N)c1N=O
- T/C [1]: 103 % of control
- T/C [2]: 99 % of control
- T/C [3]: 97 % of control

Structure (SMILES): CCc1cccc(C(C)C)c1NC1=C([n+]2ccc(C)cc2)C(=O)c2ccccc2C1=O
- T/C [16]: 117 % of control
- T/C [17]: 106 % of control
- T/C (dose: 240.0 mg/kg/injection, schedule: Q01DX005 (ip), vehicle: saline with Tween-80): 119 % of control

Structure (SMILES): C=C1C(=O)OC2/C=C(\C)CC(O)/C=C(\C)CC(OC(=O)/C(=C\C)COC(C)=O)C12 (centres undefined)
- T/C [4]: 98 % of control
- T/C [5]: 97 % of control
- T/C [6]: 104 % of control
- T/C [7]: 104 % of control

Structure (SMILES): COc1cc2c(=O)n3c4c(cccc4c2cc1OC)CCC3
- T/C (dose: 25.0 mg/kg/injection, schedule: Q01DX009 (ip), vehicle: other): 94 % of control
- T/C (dose: 50.0 mg/kg/injection, schedule: Q01DX009 (ip), vehicle: other): 90 % of control
- T/C (dose: 100.0 mg/kg/injection, schedule: Q01DX009 (ip), vehicle: other): 87 % of control
- T/C (dose: 200.0 mg/kg/injection, schedule: Q01DX009 (ip), vehicle: other): 92 % of control
- T/C (dose: 400.0 mg/kg/injection, schedule: Q01DX009 (ip), vehicle: other): 100 % of control

Structure (SMILES): CCCCCCCCC1SC1CCCCCCCC(=O)OCCOCCOCC (centres undefined)
- T/C [8]: 104 % of control
- T/C [19]: 104 % of control
- T/C (dose: 400.0 mg/kg/injection, schedule: Q01DX009 (ip), vehicle: saline with Tween-80): 100 % of control

Structure (SMILES): CN1C(=O)C(n2[nH]c(=O)n(-c3ccc(Cl)cc3)c2=O)C(=O)N(C)C1=O
- T/C [18]: 100 % of control
- T/C (dose: 100.0 mg/kg/injection, schedule: Q01DX009 (ip), vehicle: Klucel (hydroxypropylcellulose) (HPC)): 100 % of control
- T/C [20]: 97 % of control

Structure (SMILES): CCNCCNc1ccc(NCCNCC)c2c1C(=O)c1ccccc1C2=O
- T/C (dose: 4.0 mg/kg/injection, schedule: Q01DX009 (ip), vehicle: acid diluted with saline): 157 % of control
- T/C (dose: 8.0 mg/kg/injection, schedule: Q01DX009 (ip), vehicle: acid diluted with saline): 174 % of control
- T/C (dose: 12.5 mg/kg/injection, schedule: Q01DX009 (ip), vehicle: other): 168 % of control
- T/C (dose: 16.0 mg/kg/injection, schedule: Q01DX009 (ip), vehicle: acid diluted with saline): 166 % of control

Structure (SMILES): O=C(CC(=O)C(F)(F)F)c1ccc(-c2ccccc2)cc1
- T/C [6]: 110 % of control
- T/C [7]: 116 % of control
- T/C [8]: 111 % of control

Structure (SMILES): N#C/C(C(N)=O)=C(\C(=O)c1ccccc1)c1ccccc1
- T/C [21]: 99 % of control
- T/C [22]: 96 % of control

Structure (SMILES): CC(O)C(O)C(O)C(=O)NCc1ccccc1 (centres undefined)
- T/C [21]: 100 % of control
- T/C [22]: 94 % of control
- T/C (dose: 200.0 mg/kg/injection, schedule: Q01DX005 (ip), vehicle: saline with Tween-80): 99 % of control

Structure (SMILES): O=C(O)c1cncc(C(=O)NCO)c1
- T/C [9]: 101 % of control
- T/C [10]: 101 % of control and 91 % of control
- T/C (dose: 200.0 mg/kg/injection, schedule: Q01DX009 (ip), vehicle: saline): 99 % of control and 103 % of control and 91 % of control

Structure (SMILES): Cc1ccc2c(c1)N(CCSc1ncn[nH]1)C(C)(C)CC2C (centres undefined)
- T/C (dose: 100.0 mg/kg/injection, schedule: Q04DX002 (ip), vehicle: Klucel (hydroxypropylcellulose) (HPC)): 97 % of control
- T/C (dose: 200.0 mg/kg/injection, schedule: Q04DX002 (ip), vehicle: Klucel (hydroxypropylcellulose) (HPC)): 92 % of control
- T/C (dose: 400.0 mg/kg/injection, schedule: Q04DX002 (ip), vehicle: Klucel (hydroxypropylcellulose) (HPC)): 97 % of control

Structure (SMILES): CSc1cccc(NC(=O)Nc2onc(C)c2C)c1
- T/C [18]: 91 % of control

Structure (SMILES): CSC(=N/O)/C(=N\O)SC
- T/C [14]: 107 % of control
- T/C [15]: 99 % of control
- T/C [18]: 100 % of control and 102 % of control
- T/C [20]: 89 % of control

Structure (SMILES): O=[N+]([O-])CC(OCCCCCCCCCCO)C(Cl)(Cl)Cl (centres undefined)
- T/C [7]: 104 % of control
- T/C [8]: 100 % of control
- T/C [19]: 100 % of control

Structure (SMILES): COc1cccc2c1C(=O)c1c(O)c3c(c(O)c1C2=O)CC(O)(C(C)=O)CC3OC1CC(SC)C(OC(C)=O)C(C)O1 (centres undefined)
- T/C (dose: 3.13 mg/kg/injection, schedule: Q04DX003 (ip), vehicle: distilled water + Tween-80): 100 % of control
- T/C (dose: 3.13 mg/kg/injection, schedule: Q04DX003 (ip), vehicle: water): 101 % of control
- T/C (dose: 6.25 mg/kg/injection, schedule: Q04DX003 (ip), vehicle: distilled water + Tween-80): 105 % of control
- T/C (dose: 6.25 mg/kg/injection, schedule: Q04DX003 (ip), vehicle: water): 96 % of control
- T/C (dose: 12.5 mg/kg/injection, schedule: Q04DX003 (ip), vehicle: distilled water + Tween-80): 97 % of control
- T/C (dose: 12.5 mg/kg/injection, schedule: Q04DX003 (ip), vehicle: water): 97 % of control
- T/C (dose: 25.0 mg/kg/injection, schedule: Q04DX003 (ip), vehicle: distilled water + Tween-80): 100 % of control
- T/C (dose: 25.0 mg/kg/injection, schedule: Q04DX003 (ip), vehicle: water): 100 % of control
- T/C (dose: 50.0 mg/kg/injection, schedule: Q04DX003 (ip), vehicle: distilled water + Tween-80): 110 % of control
- T/C (dose: 50.0 mg/kg/injection, schedule: Q04DX003 (ip), vehicle: water): 96 % of control
